Measurements: ChEMBL document CHEMBL2074275, “Characterization of inducible nature of MRP3 in rat liver” (Am J Physiol Gastrointest Liver Physiol, 2000)

What was measured:
Format in all cases: functional, organism-based, Sprague-Dawley
[1] = target: ATP-binding cassette sub-family C member 6 (Rattus norvegicus, UniProt O88269); assay: (§1) TP_TRANSPORTER: Northern blot in vivo SD rat, liver
[2] = target: T1, Hepatic sodium/bile acid cotransporter (Rattus norvegicus, UniProt P26435); assay: as §1
T1 sequence (P26435 whole entry): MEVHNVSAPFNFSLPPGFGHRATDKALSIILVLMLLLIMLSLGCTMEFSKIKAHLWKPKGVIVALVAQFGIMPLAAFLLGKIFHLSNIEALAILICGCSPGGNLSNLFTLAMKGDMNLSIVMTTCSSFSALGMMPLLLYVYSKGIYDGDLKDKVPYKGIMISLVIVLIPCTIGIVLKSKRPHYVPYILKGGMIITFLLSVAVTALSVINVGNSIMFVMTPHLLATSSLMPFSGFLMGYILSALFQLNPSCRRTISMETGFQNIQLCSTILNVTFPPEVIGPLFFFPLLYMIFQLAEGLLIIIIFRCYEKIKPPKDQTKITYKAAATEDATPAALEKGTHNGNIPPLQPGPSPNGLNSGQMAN

[3] = target: T2, ATP-binding cassette sub-family C member 3 (Rattus norvegicus, UniProt O88563); assay: as §1
[4] = target: T2, ATP-binding cassette sub-family C member 3; assay: TP_TRANSPORTER: Western in vivo SD rat, liver

Measured: Activity

T2 sequence (O88563 whole entry): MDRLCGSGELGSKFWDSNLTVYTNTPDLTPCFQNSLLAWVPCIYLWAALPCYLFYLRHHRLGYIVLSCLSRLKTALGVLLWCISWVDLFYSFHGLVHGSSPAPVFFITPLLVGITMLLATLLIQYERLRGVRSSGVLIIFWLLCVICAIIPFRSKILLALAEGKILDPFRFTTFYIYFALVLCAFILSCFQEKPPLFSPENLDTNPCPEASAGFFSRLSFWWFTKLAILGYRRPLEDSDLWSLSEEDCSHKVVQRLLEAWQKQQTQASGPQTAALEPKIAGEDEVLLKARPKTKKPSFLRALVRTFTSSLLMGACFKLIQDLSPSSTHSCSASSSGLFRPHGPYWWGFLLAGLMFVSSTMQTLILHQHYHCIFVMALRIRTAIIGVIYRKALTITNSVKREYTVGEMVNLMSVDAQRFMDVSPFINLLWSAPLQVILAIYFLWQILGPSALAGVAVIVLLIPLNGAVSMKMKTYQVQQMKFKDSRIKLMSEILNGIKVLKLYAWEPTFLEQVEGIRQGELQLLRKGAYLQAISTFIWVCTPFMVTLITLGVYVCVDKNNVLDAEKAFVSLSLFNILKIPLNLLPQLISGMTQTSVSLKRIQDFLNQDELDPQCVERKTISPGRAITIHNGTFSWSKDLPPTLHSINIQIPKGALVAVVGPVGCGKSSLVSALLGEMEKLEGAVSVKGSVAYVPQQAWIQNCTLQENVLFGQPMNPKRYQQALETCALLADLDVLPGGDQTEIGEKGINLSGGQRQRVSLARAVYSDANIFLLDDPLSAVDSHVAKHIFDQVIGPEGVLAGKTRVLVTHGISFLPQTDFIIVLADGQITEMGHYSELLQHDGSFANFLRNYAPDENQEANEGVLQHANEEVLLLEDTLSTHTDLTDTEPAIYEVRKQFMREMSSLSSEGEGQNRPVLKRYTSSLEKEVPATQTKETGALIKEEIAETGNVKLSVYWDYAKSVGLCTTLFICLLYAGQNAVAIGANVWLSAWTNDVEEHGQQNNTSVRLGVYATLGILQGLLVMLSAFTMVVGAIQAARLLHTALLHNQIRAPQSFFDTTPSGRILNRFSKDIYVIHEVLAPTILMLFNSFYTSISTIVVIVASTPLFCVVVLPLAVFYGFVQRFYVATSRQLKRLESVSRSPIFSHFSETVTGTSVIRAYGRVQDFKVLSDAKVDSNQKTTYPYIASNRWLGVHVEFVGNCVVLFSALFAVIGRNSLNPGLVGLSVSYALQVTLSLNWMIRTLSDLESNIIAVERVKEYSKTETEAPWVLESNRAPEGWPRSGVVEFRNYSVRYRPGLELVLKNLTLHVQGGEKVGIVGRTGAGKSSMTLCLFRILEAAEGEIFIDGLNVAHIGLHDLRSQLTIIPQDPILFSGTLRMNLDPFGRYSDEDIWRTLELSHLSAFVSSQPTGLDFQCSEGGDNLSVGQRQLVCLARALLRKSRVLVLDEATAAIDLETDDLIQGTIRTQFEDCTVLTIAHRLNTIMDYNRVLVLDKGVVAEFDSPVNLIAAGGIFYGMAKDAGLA
Sequence of ATP-binding cassette sub-family C member 6 (O88269 whole entry): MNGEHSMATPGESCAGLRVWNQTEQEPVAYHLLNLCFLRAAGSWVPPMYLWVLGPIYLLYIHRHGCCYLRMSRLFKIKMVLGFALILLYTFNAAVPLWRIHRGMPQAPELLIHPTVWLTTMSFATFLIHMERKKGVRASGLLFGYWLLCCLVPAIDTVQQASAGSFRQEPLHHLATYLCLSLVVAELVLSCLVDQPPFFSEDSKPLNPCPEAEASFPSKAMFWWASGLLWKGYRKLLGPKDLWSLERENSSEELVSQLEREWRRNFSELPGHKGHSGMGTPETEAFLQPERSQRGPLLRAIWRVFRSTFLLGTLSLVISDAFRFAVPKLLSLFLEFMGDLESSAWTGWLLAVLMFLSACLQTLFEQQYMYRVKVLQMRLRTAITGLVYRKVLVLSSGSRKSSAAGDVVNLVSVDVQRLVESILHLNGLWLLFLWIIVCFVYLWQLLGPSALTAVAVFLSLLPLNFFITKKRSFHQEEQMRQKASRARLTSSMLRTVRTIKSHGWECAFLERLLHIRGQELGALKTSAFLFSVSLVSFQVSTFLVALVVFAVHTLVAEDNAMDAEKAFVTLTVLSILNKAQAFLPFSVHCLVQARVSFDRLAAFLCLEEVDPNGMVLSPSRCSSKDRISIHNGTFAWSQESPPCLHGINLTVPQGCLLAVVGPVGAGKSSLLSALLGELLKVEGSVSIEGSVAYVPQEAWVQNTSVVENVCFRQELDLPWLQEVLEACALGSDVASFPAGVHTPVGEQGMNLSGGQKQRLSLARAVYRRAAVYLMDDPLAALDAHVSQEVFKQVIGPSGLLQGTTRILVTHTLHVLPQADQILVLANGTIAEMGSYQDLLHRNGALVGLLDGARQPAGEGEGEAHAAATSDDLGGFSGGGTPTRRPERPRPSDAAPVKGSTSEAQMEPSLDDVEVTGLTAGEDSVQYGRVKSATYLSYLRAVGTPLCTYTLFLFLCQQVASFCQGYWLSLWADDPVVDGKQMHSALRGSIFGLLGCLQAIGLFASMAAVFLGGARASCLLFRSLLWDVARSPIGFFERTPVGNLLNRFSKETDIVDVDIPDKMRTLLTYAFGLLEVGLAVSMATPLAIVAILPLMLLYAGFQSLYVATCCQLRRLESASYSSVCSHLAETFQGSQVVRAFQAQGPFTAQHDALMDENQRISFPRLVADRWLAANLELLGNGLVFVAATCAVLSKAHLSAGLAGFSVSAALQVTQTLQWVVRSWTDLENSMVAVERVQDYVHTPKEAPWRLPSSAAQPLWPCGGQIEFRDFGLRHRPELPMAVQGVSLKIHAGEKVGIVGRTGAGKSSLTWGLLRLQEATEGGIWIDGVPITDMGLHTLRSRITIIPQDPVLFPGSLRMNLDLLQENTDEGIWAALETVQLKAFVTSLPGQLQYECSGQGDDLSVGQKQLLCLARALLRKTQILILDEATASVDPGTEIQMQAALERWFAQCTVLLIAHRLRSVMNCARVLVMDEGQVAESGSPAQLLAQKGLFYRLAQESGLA

O=C=Nc1cccc2ccccc12 [alpha-naphthylisocyanate]
inducer [+]: all assays above

CCC1(c2ccccc2)C(=O)NC(=O)NC1=O [PHENOBARBITAL]
inducer [+]: all assays above
